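Tested at 5 concentrations; 48 h exposure; 96-well plates; endpoints linearly interpolated, else capped at highest concentration. GI50 is the concentration that inhibits growth by half. TGI: total growth inhibition.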
Key:
Test in all cases: NCI tumour cell line growth inhibition, 48 h
SK-OV-3 ovarian = tested on: SK-OV-3 ovarian
DU-145 prostate = tested on: DU-145 prostate
SW-620 colon = tested on: SW-620 colon
SNB-19 CNS = tested on: SNB-19 CNS
SN12C renal = tested on: SN12C renal
T-47D breast = tested on: T-47D breast
HOP-62 NSCLC = tested on: HOP-62 NSCLC
SF-539 CNS = tested on: SF-539 CNS
CAKI-1 renal = tested on: CAKI-1 renal
MALME-3M melanoma = tested on: MALME-3M melanoma
EKVX NSCLC = tested on: EKVX NSCLC
SNB-75 CNS = tested on: SNB-75 CNS
KM12 colon = tested on: KM12 colon
UACC-257 melanoma = tested on: UACC-257 melanoma
M14 melanoma = tested on: M14 melanoma
SK-MEL-2 melanoma = tested on: SK-MEL-2 melanoma
HT29 colon = tested on: HT29 colon
HL-60(TB) leukemia = tested on: HL-60(TB) leukemia
COLO 205 colon = tested on: COLO 205 colon
OVCAR-3 ovarian = tested on: OVCAR-3 ovarian
SF-295 CNS = tested on: SF-295 CNS
RXF 393 renal = tested on: RXF 393 renal
NCI-H460 lung = tested on: NCI-H460 lung
MCF7 breast = tested on: MCF7 breast
OVCAR-5 ovarian = tested on: OVCAR-5 ovarian
SK-MEL-5 melanoma = tested on: SK-MEL-5 melanoma
U251 CNS = tested on: U251 CNS
MOLT-4 leukemia = tested on: MOLT-4 leukemia
NCI-H226 lung = tested on: NCI-H226 lung

Which results are given for `Cn1cc(-c2nn3cc(-c4ccncc4)nc3s2)c2cc(Cl)ccc21`?
TGI (SK-OV-3 ovarian): 30.6 µM; GI50 (DU-145 prostate): 6.23 µM; TGI (DU-145 prostate): 17.4 µM; GI50 (SW-620 colon): 1890 nM; TGI (SW-620 colon): 4.27 µM; GI50 (SNB-19 CNS): 7.98 µM; TGI (SNB-19 CNS): 32.7 µM; GI50 (SN12C renal): 3.72 µM; TGI (SN12C renal): 11.2 µM; GI50 (T-47D breast): 3.3 µM; TGI (T-47D breast): 18.6 µM; GI50 (HOP-62 NSCLC): 4.4 µM; TGI (HOP-62 NSCLC): > 27.8 µM; GI50 (SF-539 CNS): 4.67 µM; TGI (SF-539 CNS): 10.2 µM; GI50 (CAKI-1 renal): 8.31 µM; TGI (CAKI-1 renal): 28.6 µM; GI50 (MALME-3M melanoma): 3.16 µM; TGI (MALME-3M melanoma): 18.3 µM; GI50 (EKVX NSCLC): 2300 nM; TGI (EKVX NSCLC): 8.54 µM; GI50 (SNB-75 CNS): 6.42 µM; TGI (SNB-75 CNS): 24.2 µM; GI50 (KM12 colon): 12.5 µM; TGI (KM12 colon): 37.5 µM; GI50 (UACC-257 melanoma): 8.58 µM; TGI (UACC-257 melanoma): 25.2 µM; GI50 (M14 melanoma): 1600 nM; TGI (M14 melanoma): 3.14 µM; GI50 (SK-MEL-2 melanoma): 5.41 µM; TGI (SK-MEL-2 melanoma): 14 µM; GI50 (HT29 colon): 2410 nM; TGI (HT29 colon): 7.31 µM; GI50 (HL-60(TB) leukemia): 1540 nM; TGI (HL-60(TB) leukemia): 3.26 µM; GI50 (COLO 205 colon): 3.39 µM; TGI (COLO 205 colon): 9.2 µM; GI50 (OVCAR-3 ovarian): 5.8 µM; TGI (OVCAR-3 ovarian): 27.1 µM; GI50 (SF-295 CNS): 2980 nM; TGI (SF-295 CNS): 8.52 µM; GI50 (RXF 393 renal): 3.37 µM; TGI (RXF 393 renal): 9.85 µM; GI50 (NCI-H460 lung): 4.6 µM; TGI (NCI-H460 lung): 17.5 µM; GI50 (MCF7 breast): 1230 nM; TGI (MCF7 breast): 3.34 µM; GI50 (OVCAR-5 ovarian): 1860 nM; TGI (OVCAR-5 ovarian): 3.85 µM; GI50 (SK-MEL-5 melanoma): 3.02 µM; TGI (SK-MEL-5 melanoma): 8.25 µM; GI50 (U251 CNS): 9.15 µM; TGI (U251 CNS): 45.4 µM; GI50 (MOLT-4 leukemia): 2100 nM; TGI (MOLT-4 leukemia): 5.23 µM; GI50 (NCI-H226 lung): 4.86 µM; TGI (NCI-H226 lung): 26.1 µM
